# Laboratory results: US10857246B2, “Nuclear imaging and radiotherapeutics agents targeting carbonic anhydrase IX and uses thereof” (THE JOHNS HOPKINS UNIVERSITY, priority 2015, dated 2020)
# Several values for one entry are separate records, joined by “and”; a condition that tells them apart may be missing. Equal entries are not always repeated.
# Tested on: CAIX-expressing SK-RC-52 tumors
# Experiment: Biodistribution in mice bearing SK-RC-52 xenografts
# Assay type: in vivo
# Details: for Biodistribution Bladder / Biodistribution Blood / Biodistribution Brain / Biodistribution Fat / Biodistribution Heart / Biodistribution Kidney / Biodistribution Liver / Biodistribution Lung / Biodistribution Muscle / Biodistribution Pancreas / Biodistribution Small intestine / Biodistribution Spleen / Biodistribution Stomach / Biodistribution Tumor / Tumor/Kidney ratio / Tumor/Blood ratio / Tumor/Muscle ratio: 740 kBq i.v.
# Protocol: Animal experiments were performed in accordance with protocols approved by the Johns Hopkins Animal Care and Use Committee (ACUC). Six-week-old female NOD/SCID mice were purchased from the Animal Resource Core of the Sidney Kimmel Comprehensive Cancer Center of Johns Hopkins and were subcutaneously injected in the lower left flank or upper right flank with 1×10^6 SK-RC-52 cells in RPMI 1640 GlutaMAX™ media (Life Technologies, Frederick, Md.) supplemented with 1% fetal bovine serum (FBS). Mice were monitored for tumor size and used for SPECT/CT imaging when the size of the tumor reached 100 mm^3.
# Mice bearing SK-RC-52 xenografts at lower left flank were injected intravenously with 740 kBq (20 μCi) of [^111In]XYIMSR-01, or [^177Lu]XYIMSR-01 in 200 μL of PBS. For competitive blocking, same tumor bearing mice were injected with 740 kBq (20 μCi) of [^111In]XYIMSR-01 and 200 nmole of 8 in 200 μL of PBS. At 1 h, 4 h, 8 h, 24 h and 48 h post-injection, mice were sacrificed by cervical dislocation and the blood was immediately collected by cardiac puncture. Heart, lungs, pancreas, spleen, fat, brain, muscle, small intestines, liver, stomach, kidney, urinary bladder, and tumor were collected. Each organ was weighed and the tissue radioactivity was measured with an automated gamma counter (1282 Compugamma CS, Pharmacia/LKBNuclear, Inc., Mt. Waverly, Vic. Australia). The percentage of injected dose per gram of tissue (% ID/g) was calculated by comparison with samples of a standard dilution of the initial dose. All measurements were corrected for radioactive decay.
# Data were expressed as mean±standard deviation (SD). Prism software (GraphPAD, San Diego, Calif.) was used to determine statistical significance. Statistical significance was calculated using a paired t test. P-values <0.0001 were considered significant.
# Mice bearing SK-RC-52 xenografts within the lower left flank were injected intravenously with 740 kBq (20 μCi) of [Al^18F]XYIMSR-04 in 200 μL of PBS. At specific 1 hour time point mentioned in the paper, mice (n=5) were sacrificed by cervical dislocation and the blood was immediately collected by cardiac puncture. Heart, lungs, pancreas, spleen, fat, brain, muscle, small intestines, liver, bone, stomach, kidney, urinary bladder, and tumor were collected. Each organ was weighed and the tissue radioactivity was measured with an automated gamma counter (1282 Compugamma CS, Pharmacia/LKBNuclear, Inc., Mt. Waverly, Vic. Australia). The percentage of injected dose per gram of tissue (% ID/g) was calculated by comparison with samples of a standard dilution of the initial dose. All measurements were corrected for radioactive decay. Data were expressed as mean±standard deviation (SD). Prism software (GraphPAD, San Diego, Calif.) was used to determine statistical significance. Statistical significance was calculated using a paired t test. P-values <0.0001 were considered significant.
# Mice bearing SK-RC-52 xenografts within the upper right flank were injected intravenously with 740 kBq (20 μCi) of [^64Cu]XYIMSR-06 in 200 μL of PBS. For in vivo competition (binding specificity) studies, tumor-bearing mice were injected with 740 kBq (20 μCi) of [^64Cu]XYIMSR-06 and 200 nmole of 8 in 200 μL of PBS concurrently. At specific times after injection (1 h, 4 h, 8 h and 24 h), mice (n=5) were sacrificed by cervical dislocation with blood immediately collected by cardiac puncture. Heart, lungs, pancreas, spleen, fat, brain, muscle, small intestines, liver, stomach, kidney, urinary bladder, and tumor were also collected. Each organ was weighed and the tissue radioactivity was measured with an automated gamma counter (1282 Compugamma CS, Pharmacia/LKBNuclear, Inc., Mt. Waverly, Vic. Australia). The percentage of injected dose per gram of tissue (% ID/g) was calculated by comparison with samples of a standard dilution of the initial dose. All measurements were corrected for radioactive decay. Data were expressed as mean±standard deviation (SD). […]
compound,measurement,setting,value
CC(CCC(=O)N[C@@H](CC(=O)N[C@@H](CC(=O)N[C@@H](CCCCn1cc(CCCC(=O)Nc2nnc(S(N)(=O)=O)s2)nn1)C(=O)NCCOCCOCCNC(=O)CN1CCN(CC(=O)[O-])CCN(CC(=O)[O-])CCN(CC(=O)[O-])CC1)C(=O)O)C(=O)O)(c1ccc(O)cc1)c1ccc(O)cc1.[111In+3] [[^111In]XYIMSR-01],Biodistribution Bladder,1 h post-injection,4.90 % ID/g
same,Biodistribution Blood,1 h post-injection,1.34 % ID/g
same,Biodistribution Brain,1 h post-injection,1.23 % ID/g
same,Biodistribution Fat,1 h post-injection,1.03 % ID/g
same,Biodistribution Heart,1 h post-injection,5.98 % ID/g
same,Biodistribution Kidney,1 h post-injection,71.26 % ID/g
same,Biodistribution Liver,1 h post-injection,8.36 % ID/g
same,Biodistribution Lung,1 h post-injection,45.85 % ID/g
same,Biodistribution Muscle,1 h post-injection,2.34 % ID/g
same,Biodistribution Pancreas,1 h post-injection,3.81 % ID/g
same,Biodistribution Small intestine,1 h post-injection,9.37 % ID/g
same,Biodistribution Spleen,1 h post-injection,0.52 % ID/g
same,Biodistribution Stomach,1 h post-injection,16.71 % ID/g
same,Biodistribution Tumor,1 h post-injection,26 % ID/g and 26.01 % ID/g
same,Tumor/Kidney ratio,1 h post-injection,0.36
same,Biodistribution Bladder,4 h post-injection,2.68 % ID/g
same,Biodistribution Blood,4 h post-injection,0.65 % ID/g
same,Biodistribution Brain,4 h post-injection,0.45 % ID/g
same,Biodistribution Fat,4 h post-injection,0.42 % ID/g
same,Biodistribution Heart,4 h post-injection,2.91 % ID/g
same,Biodistribution Kidney,4 h post-injection,41.52 % ID/g
same,Biodistribution Liver,4 h post-injection,4.00 % ID/g
same,Biodistribution Lung,4 h post-injection,17.85 % ID/g
same,Biodistribution Muscle,4 h post-injection,1.01 % ID/g
same,Biodistribution Pancreas,4 h post-injection,1.54 % ID/g
same,Biodistribution Small intestine,4 h post-injection,4.27 % ID/g
same,Biodistribution Spleen,4 h post-injection,0.51 % ID/g
same,Biodistribution Stomach,4 h post-injection,7.91 % ID/g
same,Biodistribution Tumor,4 h post-injection,20.83 % ID/g
same,Tumor/Blood ratio,4 h post-injection,31.9
same,Tumor/Kidney ratio,4 h post-injection,0.50
same,Tumor/Muscle ratio,4 h post-injection,21.4
same,Biodistribution Bladder,8 h post-injection,2.28 % ID/g
same,Biodistribution Blood,8 h post-injection,0.48 % ID/g
same,Biodistribution Brain,8 h post-injection,0.59 % ID/g
same,Biodistribution Fat,8 h post-injection,0.45 % ID/g
same,Biodistribution Heart,8 h post-injection,2.61 % ID/g
same,Biodistribution Kidney,8 h post-injection,28.79 % ID/g
same,Biodistribution Liver,8 h post-injection,3.65 % ID/g
same,Biodistribution Lung,8 h post-injection,17.39 % ID/g
same,Biodistribution Muscle,8 h post-injection,1.09 % ID/g
same,Biodistribution Pancreas,8 h post-injection,1.61 % ID/g
same,Biodistribution Small intestine,8 h post-injection,4.31 % ID/g
same,Biodistribution Spleen,8 h post-injection,0.64 % ID/g
same,Biodistribution Stomach,8 h post-injection,8.74 % ID/g
same,Biodistribution Tumor,8 h post-injection,34.0 % ID/g
same,Tumor/Blood ratio,8 h post-injection,77.0
same,Tumor/Kidney ratio,8 h post-injection,3.1
same,Tumor/Muscle ratio,8 h post-injection,34.2
same,All other tumor/organ ratios,24 h,≥ 10
same,Biodistribution Bladder,24 h + block (200 nmole of 8),0.20 % ID/g
same,Biodistribution Blood,24 h + block (200 nmole of 8),0.03 % ID/g
same,Biodistribution Brain,24 h + block (200 nmole of 8),0.03 % ID/g
same,Biodistribution Fat,24 h + block (200 nmole of 8),0.02 % ID/g
same,Biodistribution Heart,24 h + block (200 nmole of 8),0.04 % ID/g
same,Biodistribution Kidney,24 h + block (200 nmole of 8),0.68 % ID/g
same,Biodistribution Liver,24 h + block (200 nmole of 8),0.10 % ID/g
same,Biodistribution Lung,24 h + block (200 nmole of 8),0.12 % ID/g
